Experimental data as given in ChEMBL document CHEMBL3616467, “One-pot synthesis of new triazole--Imidazo[2,1-b][1,3,4]thiadiazole hybrids via click chemistry and evaluation of their antitubercular activity” (Bioorg Med Chem Lett, 2015).
Values after ≈ are worked out from the molar mass of the structure shown.

Tests used:
[1] = tested on: Mycobacterium tuberculosis; experiment: Antitubercular activity against Mycobacterium tuberculosis H37Rv ATCC 27294 after 28 days by agar dilution method; assay type: functional; conditions: H37Rv ATCC 27294, 672 h
[2] = Cytotoxicity against mouse NIH/3T3 cells assessed as growth inhibition at 50 ug/ml after 48 hrs by MTT assay relative to control; assay type: cell-based, NIH3T3; conditions: read-out: GI

Row | SMILES | MIC [1] | inhibition at 48 h, 50 ug/ml [2]
1 | CCn1cc(COCc2c(-c3ccc(OC)cc3)nc3sc(C)nn23)nn1 | 25 µg/mL (≈ 65 µM) | –
2 | Cc1ccc(-c2nc3sc(C)nn3c2COCc2cn(Cc3ccccc3F)nn2)cc1 | 50 µg/mL (≈ 111 µM) | –
3 | CC[C@@H](CO)NCCN[C@@H](CC)CO [ETHAMBUTOL] | 3.12 µg/mL (≈ 15.3 µM) | –
4 | COc1ccc(-c2nc3sc(C)nn3c2COCc2cn(Cc3ccc(F)cc3)nn2)cc1 | 12.5 µg/mL (≈ 26.9 µM) | 19.1%
5 | COc1ccc(-c2nc3sc(C)nn3c2COCc2cn(Cc3ccccc3)nn2)cc1 | 3.12 µg/mL (≈ 7 µM) | 22.7%
6 | Cc1nn2c(COCc3cn(Cc4ccc(F)cc4)nn3)c(-c3ccc(Cl)cc3)nc2s1 | 25 µg/mL (≈ 53.3 µM) | –
7 | Cc1nn2c(COCc3cn(C(C)C)nn3)c(-c3ccc(Cl)cc3)nc2s1 | 50 µg/mL (≈ 124 µM) | –
8 | NC(=O)c1cnccn1 [PYRAZINAMIDE] | 50 µg/mL (≈ 406 µM) | –
9 | CCOC(=O)Cn1cc(COCc2c(-c3ccc(C)cc3)nc3sc(C)nn23)nn1 | 50 µg/mL (≈ 117 µM) | –
10 | CCn1cc(COCc2c(-c3ccc(C)cc3)nc3sc(C)nn23)nn1 | 25 µg/mL (≈ 67.8 µM) | –
11 | NNC(=O)c1ccncc1 [ISONIAZID] | 0.1 µg/mL (≈ 0.729 µM) | –
12 | Cc1nn2c(COCc3cn(Cc4ccccc4)nn3)c(-c3ccc(Cl)cc3)nc2s1 | 25 µg/mL (≈ 55.4 µM) | –
13 | Cc1ccc(-c2nc3sc(C)nn3c2COCc2cn(Cc3ccc(F)cc3)nn2)cc1 | 50 µg/mL (≈ 111 µM) | –
14 | Cc1ccc(-c2nc3sc(C)nn3c2COCc2cn(CC#N)nn2)cc1 | 25 µg/mL (≈ 65.9 µM) | –
15 | Cc1nn2c(COCc3cn(CC#N)nn3)c(-c3ccc(Cl)cc3)nc2s1 | 6.25 µg/mL (≈ 15.6 µM) | 27.3%
16 | COc1ccc(-c2nc3sc(C)nn3c2COCc2cn(Cc3ccccc3F)nn2)cc1 | 25 µg/mL (≈ 53.8 µM) | –
17 | CCn1cc(COCc2c(-c3ccc(Cl)cc3)nc3sc(C)nn23)nn1 | 3.12 µg/mL (≈ 8.04 µM) | 20.1%
18 | CCOC(=O)Cn1cc(COCc2c(-c3ccc(Cl)cc3)nc3sc(C)nn23)nn1 | 12.5 µg/mL (≈ 28 µM) | 28.2%
19 | Cc1nn2c(COCc3cn(CC(=O)O)nn3)c(-c3ccc(Cl)cc3)nc2s1 | 50 µg/mL (≈ 119 µM) | –
20 | COc1ccc(-c2nc3sc(C)nn3c2COCc2cn(CC#N)nn2)cc1 | 50 µg/mL (≈ 126 µM) | –
21 | CCOC(=O)Cn1cc(COCc2c(-c3ccc(OC)cc3)nc3sc(C)nn23)nn1 | 50 µg/mL (≈ 113 µM) | –
22 | Cc1ccc(-c2nc3sc(C)nn3c2COCc2cn(Cc3ccccc3)nn2)cc1 | 25 µg/mL (≈ 58.1 µM) | –
23 | Cc1nn2c(COCc3cn(Cc4ccccc4F)nn3)c(-c3ccc(Cl)cc3)nc2s1 | 50 µg/mL (≈ 107 µM) | –
